# Activity calls are given as the source filed them. The calls are words filed in the database; no cut-off is given here.
# How the values were obtained:
# [1] = test system: Mus musculus; test: Antifibrotic activity against BDL-induced C57BL/6J mouse hepatic fibrosis model assessed as reduction in collagen deposition in liver at 15 to 30 mg/kg, po administered via gavage starting from 3 days post-BDL by Sirius Red and Masson staining based assay; format: functional, organism-based; details: dose 15-30 mg/kg
# [2] = test system: Mus musculus; test: Antifibrotic activity against BDL-induced C57BL/6J mouse hepatic fibrosis model assessed as improvement in histological changes at 15 to 30 mg/kg, po administered via gavage starting from 3 days post-BDL by H and E staining based assay; format: functional, organism-based; details: dose 15-30 mg/kg
# [3] = test system: Mus musculus; test: Antifibrotic activity against BDL-induced C57BL/6J mouse hepatic fibrosis model assessed as reduction in alphaSMA expression in liver at 15 to 30 mg/kg, po administered via gavage starting from 3 days post-BDL by immunohistochemical staining based assay; format: functional, organism-based; details: dose 15-30 mg/kg
# [4] = test system: Mus musculus; test: In vivo inhibition of JNK phosphorylation in BDL-induced C57BL/6J mouse hepatic fibrosis model at 15 to 30 mg/kg, po administered via gavage starting from 3 days post-BDL by Western blot analysis; format: functional, organism-based; details: dose 15-30 mg/kg
# [5] = test system: RAW264.7; test: Inhibition of LPS-induced NFkappaB transcriptional activity in mouse RAW264.7 cells at 10 uM preincubated for 2 hrs followed by LPS stimulation and measured after 6 hrs by luciferase reporter gene assay relative to control; format: cell-based; details: time 8.0 hrs
# [6] = test system: Mus musculus; test: In vivo inhibition of p38 phosphorylation in CCL4-induced C57BL/6J mouse hepatic fibrosis model at 15 to 30 mg/kg, po administered via gavage for 4 weeks starting from 5th week of CCL4 stimulation by Western blot analysis; format: functional, organism-based; details: dose 15-30 mg/kg
# [7] = biological target: Mothers against decapentaplegic homolog 2 (Homo sapiens) (UniProt Q15796); test: Inhibition of TGFbeta1-induced Smad2 phosphorylation in human LX-2 cells preincubated for 2 hrs followed by […] stimulation and measured after 2 hrs by Western blot analysis; format: cell-based; details: dose 5-20 µM, time 4.0 hrs
# [8] = test system: Mus musculus; test: Antifibrotic activity against BDL-induced C57BL/6J mouse hepatic fibrosis model assessed as reduction in collagen 1 mRNA expression in liver at 15 to 30 mg/kg, po administered via gavage starting from 3 days post-BDL by qRT-PCR analysis; format: functional, organism-based; details: dose 15-30 mg/kg
# [9] = test system: Mus musculus; test: Antifibrotic activity against CCL4-induced C57BL/6J mouse hepatic fibrosis model assessed as reduction in infiltration of inflammatory cells in liver at 15 to 30 mg/kg, po administered via gavage for 4 weeks starting from 5th week of CCL4 stimulation by H and E staining based histopathological analysis; format: functional, organism-based; details: dose 15-30 mg/kg
# [10] = test system: RAW264.7; test: Antiinflammatory activity in mouse RAW264.7 cells assessed as inhibition of LPS-induced alpha-SMA mRNA expression at 5 to 20 uM preincubated for 2 hrs followed by LPS stimulation and measured after 48 hrs by qRT-PCR analysis; format: functional, cell-based; details: dose 5-20 µM, time 50.0 hrs
# [11] = test system: LX-2; test: Inhibition of FBS-induced cell migration in human LX-2 cells assessed as reduction in number of migrated cells measured after 24 hrs by crystal violet staining based transwell assay; format: functional; details: dose 5-20 µM
# [12] = test system: Mus musculus; test: Antifibrotic activity against CCL4-induced C57BL/6J mouse hepatic fibrosis model assessed as reduction in alphaSMA expression in liver at 15 to 30 mg/kg, po administered via gavage for 4 weeks starting from 5th week of CCL4 stimulation by immunohistochemical staining based assay; format: functional, organism-based; details: dose 15-30 mg/kg
# [13] = test system: RAW264.7; test: Antiinflammatory activity in mouse RAW264.7 cells assessed as inhibition of LPS-induced alpha-SMA expression at 5 to 20 uM preincubated for 2 hrs followed by LPS stimulation and measured after 48 hrs by Western blot analysis; format: functional, cell-based; details: dose 5-20 µM, time 50.0 hrs
# [14] = test system: Mus musculus; test: Antifibrotic activity against CCL4-induced C57BL/6J mouse hepatic fibrosis model assessed as reduction in alphaSMA expression in liver at 15 to 30 mg/kg, po administered via gavage for 4 weeks starting from 5th week of CCL4 stimulation by Western blot analysis; format: functional, organism-based; details: dose 15-30 mg/kg
# [15] = test system: LX-2; test: Inhibition of TGFbeta1-induced ERK1/2 phosphorylation in human LX-2 cells at 5 to 20 uM preincubated for 2 hrs followed by […] stimulation and measured after 2 hrs by Western blot analysis; format: cell-based; details: dose 5-20 µM, time 4.0 hrs
# [16] = test system: RAW264.7; test: Inhibition of LPS-induced NFkappaB transcriptional activity in mouse RAW264.7 cells at 5 uM preincubated for 2 hrs followed by LPS stimulation and measured after 6 hrs by luciferase reporter gene assay relative to control; format: cell-based; details: time 8.0 hrs
# [17] = biological target: c-Jun N-terminal kinase, JNK (Homo sapiens) (UniProt P45983+P53779+P45984); test: Inhibition of TGFbeta1-induced JNK phosphorylation in human LX-2 cells at 5 to 20 uM preincubated for 2 hrs followed by […] stimulation and measured after 2 hrs by Western blot analysis; format: cell-based; details: dose 5-20 µM, time 4.0 hrs
# [18] = test system: RAW264.7; test: Antiinflammatory activity in mouse RAW264.7 cells assessed as inhibition of TGFbeta1-induced collagen 1 expression at 5 to 20 uM preincubated for 2 hrs […] and measured after 48 hrs by Western blot analysis; format: functional, cell-based; details: dose 5-20 µM, time 50.0 hrs
# [19] = test system: Mus musculus; test: In vivo inhibition of p65 phosphorylation in CCL4-induced C57BL/6J mouse hepatic fibrosis model at 15 to 30 mg/kg, po administered via gavage for 4 weeks starting from 5th week of CCL4 stimulation by Western blot analysis; format: functional, organism-based; details: dose 15-30 mg/kg
# [20] = test system: RAW264.7; test: Antiinflammatory activity in mouse RAW264.7 cells assessed as inhibition of LPS-induced collagen 1 mRNA expression at 5 to 20 uM preincubated for 2 hrs followed by LPS stimulation and measured after 48 hrs by qRT-PCR analysis; format: functional, cell-based; details: dose 5-20 µM, time 50.0 hrs
# [21] = test system: RAW264.7; test: Antiinflammatory activity in mouse RAW264.7 cells assessed as inhibition of LPS-induced collagen 1 expression at 5 to 20 uM preincubated for 2 hrs followed by LPS stimulation and measured after 48 hrs by Western blot analysis; format: functional, cell-based; details: dose 5-20 µM, time 50.0 hrs
# [22] = test system: Mus musculus; test: Antifibrotic activity against CCL4-induced C57BL/6J mouse hepatic fibrosis model assessed as reduction in rough surface of liver at 15 to 30 mg/kg, po administered via gavage for 4 weeks starting from 5th week of CCL4 stimulation; format: functional, organism-based; details: dose 15-30 mg/kg
# [23] = test system: Mus musculus; test: In vivo inhibition of Smad3 phosphorylation in BDL-induced C57BL/6J mouse hepatic fibrosis model at 15 to 30 mg/kg, po administered via gavage starting from 3 days post-BDL by Western blot analysis; format: functional, organism-based; details: dose 15-30 mg/kg
# [24] = test system: Mus musculus; test: Antifibrotic activity against BDL-induced C57BL/6J mouse hepatic fibrosis model assessed as reduction in alphaSMA mRNA expression in liver at 15 to 30 mg/kg, po administered via gavage starting from 3 days post-BDL by qRT-PCR analysis; format: functional, organism-based; details: dose 15-30 mg/kg
# [25] = test system: LX-2; test: Inhibition of FBS-induced cell migration in human LX-2 cells assessed as reduction in wound healing measured after 24 hrs by scratch wound assay; format: functional, cell-based; details: dose 5-20 µM
# [26] = test system: Mus musculus; test: Antifibrotic activity against CCL4-induced C57BL/6J mouse hepatic fibrosis model assessed as reduction in necrosis of hepatocytes at 15 to 30 mg/kg, po administered via gavage for 4 weeks starting from 5th week of CCL4 stimulation by H and E staining based histopathological analysis; format: functional, organism-based; details: dose 15-30 mg/kg
# [27] = test system: RAW264.7; test: Antiinflammatory activity in mouse RAW264.7 cells assessed as inhibition of TGFbeta1-induced alpha-SMA expression at 5 to 20 uM preincubated for 2 hrs […] and measured after 48 hrs by Western blot analysis; format: functional, cell-based; details: dose 5-20 µM, time 50.0 hrs
# [28] = test system: Mus musculus; test: In vivo inhibition of p38 phosphorylation in BDL-induced C57BL/6J mouse hepatic fibrosis model at 15 to 30 mg/kg, po administered via gavage starting from 3 days post-BDL by Western blot analysis; format: functional, organism-based; details: dose 15-30 mg/kg
# Sequence of Mothers against decapentaplegic homolog 2 (Homo sapiens) (Q15796 whole entry): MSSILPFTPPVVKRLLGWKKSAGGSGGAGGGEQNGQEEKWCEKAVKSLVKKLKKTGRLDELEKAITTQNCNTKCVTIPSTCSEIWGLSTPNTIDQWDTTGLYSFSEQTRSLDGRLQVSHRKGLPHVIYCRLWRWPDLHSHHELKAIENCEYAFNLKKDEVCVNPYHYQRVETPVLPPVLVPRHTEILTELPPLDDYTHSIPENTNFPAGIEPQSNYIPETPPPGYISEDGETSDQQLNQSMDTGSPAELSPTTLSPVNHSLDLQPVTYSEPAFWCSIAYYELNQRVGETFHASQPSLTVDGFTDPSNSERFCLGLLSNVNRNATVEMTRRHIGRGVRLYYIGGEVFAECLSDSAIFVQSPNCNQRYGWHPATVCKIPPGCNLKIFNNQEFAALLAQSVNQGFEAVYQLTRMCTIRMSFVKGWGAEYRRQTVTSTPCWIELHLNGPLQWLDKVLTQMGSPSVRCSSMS
structure (smiles),measurement,setting,value
COC(=O)CCC[C@@H]1[C@H]2CCCN3CCC[C@H](CN1C(=O)C(C)c1ccc(-c4ccccc4)c(F)c1)[C@@H]23 (stereo partly drawn),Activity,[1],Active
same,Activity,[2],Active
same,Activity,[3],Active
same,inhibition,[4],inactive
same,fold change (FC),[5],0.71
same,inhibition,[6],inactive
same,inhibition,[7],Dose-dependent-effect
same,Activity,[8],Active
same,Activity,[9],Active
same,inhibition,[10],Active
same,inhibition,[11],Dose-dependent-effect
same,Activity,[12],Active
same,inhibition,[13],Active
same,Activity,[14],Active
same,inhibition,[15],inactive
same,fold change (FC),[16],0.86
same,inhibition,[17],inactive
same,inhibition,[18],Active
same,inhibition,[19],Active
same,inhibition,[20],Active
same,inhibition,[21],Active
same,Activity,[22],Active; Significant Alleviation Observed
same,inhibition,[23],Active
same,Activity,[24],Active
same,inhibition,[25],Dose-dependent-effect
same,Activity,[26],Active
same,inhibition,[27],Active
same,inhibition,[28],inactive

# — ChEMBL document CHEMBL6177933, “Discovery of Sophoridine α-Aryl Propionamide Derivative ZM600 as a Novel Antihepatic Fibrosis Agent” (J Med Chem, 2024)
